IC50 data for 14 compounds are collected here from patent US20250163104A1, “MACROCYCLIC IMMUNOMODULATORS” (priority 2021, published 2025).

Like-named read-outs stand apart in the source and are kept apart here. Where a SMILES comes first, the peptide text is derived from it. Bridges are numbered along the chain shown (N, C = ends). [ ]: non-standard residue; d: D form. The star is where a group is joined. ξ: configuration not given here. Phe(3-CF3) = N[C@@H](Cc1cccc(C(F)(F)F)c1)C(=O)O; Ala(morpholin-4-yl) = N[C@@H](CN1CCOCC1)C(=O)O; Phe(4-COOH) = N[C@@H](Cc1ccc(C(=O)O)cc1)C(=O)O; Bip = N[C@@H](Cc1ccc(-c2ccccc2)cc1)C(=O)O; Phe(4-CN) = N#Cc1ccc(C[C@H](N)C(=O)O)cc1; Phe(3-Me) = Cc1cccc(C[C@H](N)C(=O)O)c1; Val(3-OH) = CC(C)(O)[C@H](N)C(=O)O; aIle = CC[C@@H](C)[C@H](N)C(=O)O; hPhe = N[C@@H](CCc1ccccc1)C(=O)O; 4Pal = N[C@@H](Cc1ccncc1)C(=O)O; Cha = N[C@@H](CC1CCCCC1)C(=O)O; Cit = NC(=O)NCCC[C@H](N)C(=O)O; dCha = N[C@H](CC1CCCCC1)C(=O)O; Thr(3ξ) = CC(O)[C@H](N)C(=O)O; Carboxymethyl = O=C(O)C*; Nle = CCCC[C@H](N)C(=O)O; Orn = NCCC[C@H](N)C(=O)O; Pra = C#CC[C@H](N)C(=O)O; Dab = NCC[C@H](N)C(=O)O; Nva = CCC[C@H](N)C(=O)O; Dap = NC[C@H](N)C(=O)O

This assay deals with T1, human PD-1 / PD-L1-Ig binding on Jurkat cell line over-expressing human PD-1 (Jurkat-PD-1) (Homo sapiens, UniProt Q15116).
T1 construct: expressed in transfected cells; host or cells: Jurkat
As to the kind of experiment: Jurkat-PD-1 Cell Binding High-Content Screening Assay (CBA). The following applies: PE-labeled PD-L1-Ig 20 nM final. Type of assay: cell-based. The procedure, abridged:
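Compounds were preincubated with Jurkat-hPD-1 cells in DMEM plus 10% fetal calf serum for 2 h at 37° C. Phycoerythrin-labeled PD-L1-Ig (20 nM final) was then added for 1 hour. Cells were fixed in 4% paraformaldehyde with Hoechst 33342, and bound fluorescence was quantified by high-content imaging.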

The mark [1] stands for this setting: Jurkat-PD-1 cells, read-out: Jurkat HPD1_PDL1 IC50.

T1 sequence (Q15116 25-288): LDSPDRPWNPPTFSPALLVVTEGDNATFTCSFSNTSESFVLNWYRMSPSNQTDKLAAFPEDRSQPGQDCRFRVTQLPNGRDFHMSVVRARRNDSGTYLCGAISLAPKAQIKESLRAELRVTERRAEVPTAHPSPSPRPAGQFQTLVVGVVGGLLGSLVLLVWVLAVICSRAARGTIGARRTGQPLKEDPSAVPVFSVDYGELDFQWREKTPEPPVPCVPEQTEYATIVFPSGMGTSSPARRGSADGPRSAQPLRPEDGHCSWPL

Where the note is “Jurkat HPD1_PDL1 IC50, Jurkat-PD-1 cells”, `CC(C)C[C@H]1NC(=O)[C@H](CCCN)NC(=O)[C@H](CCC(=O)O)NC(=O)[C@H](Cc2ccc(-c3ccccc3)cc2)NC(=O)[C@H](C(C)C)NC(=O)[C@H](Cc2c[nH]c3ccccc23)NC(=O)[C@H](CC(=O)O)NC(=O)[C@H](Cc2ccc(OCC(=O)O)cc2)NC(=O)[C@H](Cc2ccncc2)NC(=O)CSC[C@@H](C(=O)N[C@@H](C)C(N)=O)NC(=O)[C@H]([C@@H](C)O)NC(=O)[C@H](C(C)C)NC(=O)[C@H](CC2CCCCC2)NC(=O)[C@H](Cc2c[nH]cn2)NC1=O` [Compound 1609] yielded an IC50 of 0.0153 µM.

Regarding `Cc1cccc(C[C@@H]2NC(=O)[C@H](CC(=O)O)NC(=O)[C@H](Cc3ccc(C(=O)O)cc3)NC(=O)[C@H](CN)NC(=O)CSC[C@@H](C(=O)N[C@@H](CCN)C(N)=O)NC(=O)[C@H]([C@@H](C)O)NC(=O)[C@H](C(C)C)NC(=O)[C@H](CC(C)C)NC(=O)[C@H](CCN)NC(=O)[C@@H](CC(C)C)NC(=O)[C@H](CCCN)NC(=O)[C@H](C(C)C)NC(=O)[C@H](Cc3ccc(-c4ccccc4)cc3)NC(=O)[C@H](C(C)C)NC2=O)c1` [Compound 2008] ({CH2CO}-[Dap][Phe(4-COOH)]D[Phe(3-Me)]V[Bip]V[Orn][dL][Dab]LVTC[Dab]-NH2; thioether N-14), under setting [1], the IC50 turned out to be 0.0199 µM.

For `CCCC[C@@H]1NC(=O)[C@H](CCN)NC(=O)[C@@H](CC(C)C)NC(=O)[C@H](CCCN)NC(=O)[C@H](C(C)C)NC(=O)[C@H](Cc2ccc(-c3ccccc3)cc2)NC(=O)[C@H](CC(C)C)NC(=O)[C@H](Cc2c[nH]c3ccccc23)NC(=O)[C@H](CC(=O)O)NC(=O)[C@H](Cc2ccc(C(=O)O)cc2)NC(=O)[C@H](Cc2ccc(OCC(=O)O)cc2)NC(=O)CSC[C@@H](C(=O)NCC(N)=O)NC(=O)[C@H](CO)NC(=O)[C@H](C(C)C)NC1=O` [Compound 1410] ({CH2CO}-Y(Carboxymethyl)[Phe(4-COOH)]DWL[Bip]V[Orn][dL][Dab][Nle]VSCG-NH2; thioether N-14), the IC50 under setting [1] was found to be 0.0073 µM.

For `CC(C)C[C@H]1NC(=O)[C@H](CCCN)NC(=O)[C@H](CCC(=O)O)NC(=O)[C@H](Cc2ccc(-c3ccccc3)cc2)NC(=O)[C@H](C(C)C)NC(=O)[C@H](Cc2c[nH]c3ccccc23)NC(=O)[C@H](CC(=O)O)NC(=O)[C@H](Cc2ccc(OCC(=O)O)cc2)NC(=O)[C@H](CN)NC(=O)CSC[C@@H](C(=O)N[C@@H](C)C(N)=O)NC(=O)[C@H]([C@@H](C)O)NC(=O)[C@H](C(C)C)NC(=O)[C@H](Cc2ccn[nH]2)NC(=O)[C@H](CCN)NC1=O` [Compound 1509], under setting [1], the IC50 amounted to 0.413 µM.

As for `CC(C)C[C@H]1NC(=O)[C@H](CCCN)NC(=O)[C@H](CCC(=O)O)NC(=O)[C@H](Cc2ccc(-c3ccccc3)cc2)NC(=O)[C@H](C(C)C)NC(=O)[C@H](Cc2cccc(C(F)(F)F)c2)NC(=O)[C@H](CC(=O)O)NC(=O)[C@H](Cc2ccc(OCC(=O)O)cc2)NC(=O)[C@H](Cc2ccncc2)NC(=O)CSC[C@@H](C(=O)N[C@@H](C)C(N)=O)NC(=O)[C@H]([C@@H](C)O)NC(=O)[C@H](C(C)C)NC(=O)[C@H](CC2CCCCC2)NC(=O)[C@H](CCN)NC1=O` [Compound 1460], the IC50 under setting [1] stood at 0.0112 µM.

Regarding `CC(C)[C@@H]1NC(=O)[C@H](Cc2c[nH]c3ccccc23)NC(=O)[C@H](CC(=O)O)NC(=O)[C@H](Cc2ccncc2)NC(=O)[C@H](Cc2ccc(OCC(=O)O)cc2)NC(=O)CSC[C@@H](C(=O)N[C@@H](C)C(N)=O)NC(=O)[C@H]([C@@H](C)O)NC(=O)[C@H](C(C)C)NC(=O)[C@H](CC2CCCCC2)NC(=O)[C@H](CCN)NC(=O)[C@@H](CC2CCCCC2)NC(=O)[C@H](CCCN)NC(=O)[C@H](CCC(=O)O)NC(=O)[C@H](Cc2ccc(-c3ccccc3)cc2)NC1=O` [Compound 1441] ({CH2CO}-Y(Carboxymethyl)[4Pal]DWV[Bip]E[Orn][dCha][Dab][Cha]VTCA-NH2; thioether N-14), the IC50 under setting [1] worked out at 0.0134 µM.

`CC(C)C[C@H]1NC(=O)[C@H](CCCN)NC(=O)[C@H](Cc2ccc(C(=O)O)cc2)NC(=O)[C@H](Cc2ccc(-c3ccccc3)cc2)NC(=O)[C@H](CCc2ccccc2)NC(=O)[C@H](Cc2cccc(C(F)(F)F)c2)NC(=O)[C@H](CC(=O)O)NC(=O)[C@H](Cc2ccc(C(=O)O)cc2)NC(=O)[C@H](CN2CCOCC2)NC(=O)CSC[C@@H](C(=O)N[C@@H](CCN)C(N)=O)NC(=O)[C@H](CCC(=O)O)NC(=O)[C@H](C(C)C)NC(=O)[C@H](CC2CCCCC2)NC(=O)[C@H](CCN)NC1=O` [Example 2744] ({CH2CO}-[Ala(morpholin-4-yl)][Phe(4-COOH)]D[Phe(3-CF3)][hPhe][Bip][Phe(4-COOH)][Orn][dL][Dab][Cha]VEC[Dab]-NH2; thioether N-14): the IC50 under setting [1] was found to be 0.0034 µM.

For `Cc1cccc(C[C@@H]2NC(=O)[C@H](CC(=O)O)NC(=O)[C@H](Cc3ccc(C(=O)O)cc3)NC(=O)[C@H](Cc3ccncc3)NC(=O)CSC[C@@H](C(=O)N[C@H](CC(N)=O)C(N)=O)NC(=O)[C@H](CO)NC(=O)[C@H](C(C)(C)O)NC(=O)[C@H](CC3CCCCC3)NC(=O)[C@H](CCN)NC(=O)[C@@H](CC(C)C)NC(=O)[C@H](CCCN)NC(=O)[C@H](Cc3ccc(C(=O)O)cc3)NC(=O)[C@H](Cc3ccc(-c4ccccc4)cc3)NC(=O)[C@H](Cc3ccc(OCC(=O)O)cc3)NC2=O)c1` [Compound 2655] ({CH2CO}-[4Pal][Phe(4-COOH)]D[Phe(3-Me)]Y(Carboxymethyl)[Bip][Phe(4-COOH)][Orn][dL][Dab][Cha][Val(3-OH)]SC[dN]-NH2; thioether N-14), under setting [1], the IC50 is 0.11 µM.

Turning to `CC[C@@H](C)[C@@H]1NC(=O)[C@H](Cc2ccc(-c3ccccc3)cc2)NC(=O)[C@H](C(C)C)NC(=O)[C@H](Cc2c[nH]c3ccccc23)NC(=O)[C@H](CC(=O)O)NC(=O)[C@H](Cc2ccncc2)NC(=O)[C@H](CN)NC(=O)CSC[C@@H](C(=O)N[C@@H](C)C(N)=O)NC(=O)[C@H]([C@@H](C)O)NC(=O)[C@H](C(C)C)NC(=O)[C@H](CC2CCCCC2)NC(=O)[C@H](CCN)NC(=O)[C@@H](CC2CCCCC2)NC(=O)[C@H](CCCN)NC1=O` [Compound 1630] ({CH2CO}-[Dap][4Pal]DWV[Bip][aIle][Orn][dCha][Dab][Cha]VTCA-NH2; thioether N-14), the IC50 under setting [1] came to 0.0483 µM.

Consider `C#CC[C@H](NC(=O)[C@H](CCN)NC(=O)[C@@H]1CSCC(=O)N[C@@H](CCC)C(=O)N[C@@H](Cc2ccc(OCC(=O)O)cc2)C(=O)N[C@@H](CC(=O)O)C(=O)N[C@@H](Cc2cccc(C)c2)C(=O)N[C@@H](Cc2ccc(OCC(=O)O)cc2)C(=O)N[C@@H](Cc2ccc(-c3ccccc3)cc2)C(=O)N[C@@H](Cc2ccc(OCC(=O)O)cc2)C(=O)N[C@@H](CCCN)C(=O)N[C@H](CC(C)C)C(=O)N[C@@H](CCN)C(=O)N[C@@H](CC2CCCCC2)C(=O)N[C@@H](C(C)C)C(=O)N[C@@H](CCC(=O)O)C(=O)N1)C(=O)O` [Compound 1826] ({CH2CO}-[Nva]Y(Carboxymethyl)D[Phe(3-Me)]Y(Carboxymethyl)[Bip]Y(Carboxymethyl)[Orn][dL][Dab][Cha]VEC[Dab][Pra]-OH; thioether N-14), for which the IC50 under setting [1] turned out to be 0.004 µM.

Turning to `CC(C)C[C@@H]1NC(=O)[C@H](CCN)NC(=O)[C@@H](CC(C)C)NC(=O)[C@H](CCN)NC(=O)[C@H](CCC(=O)O)NC(=O)[C@H](Cc2ccc(-c3ccccc3)cc2)NC(=O)[C@H](C(C)C)NC(=O)[C@H](Cc2c[nH]c3ccccc23)NC(=O)[C@H](CC(=O)O)NC(=O)[C@H](Cc2ccncc2)NC(=O)[C@H](CN)NC(=O)CSC[C@@H](C(=O)N[C@@H](C)C(N)=O)NC(=O)[C@H](CO)NC(=O)[C@H](C(C)C)NC1=O` [Compound 1267] ({CH2CO}-[Dap][4Pal]DWV[Bip]E[Dab][dL][Dab]LVSCA-NH2; thioether N-14), the IC50 under setting [1] amounted to 0.0999 µM.

Consider `Cc1cccc(C[C@@H]2NC(=O)[C@H](CC(=O)O)NC(=O)[C@H](Cc3ccc(C(=O)O)cc3)NC(=O)[C@H](Cc3ccncc3)NC(=O)CSC[C@@H](C(N)=O)NC(=O)[C@H]([C@@H](C)O)NC(=O)[C@H](C(C)C)NC(=O)[C@H](CC3CCCCC3)NC(=O)[C@H](CCN)NC(=O)[C@@H](CC(C)C)NC(=O)[C@H](CCCN)NC(=O)[C@H](CCCNC(N)=O)NC(=O)[C@H](Cc3ccc(-c4ccccc4)cc3)NC(=O)[C@H](C(C)C)NC2=O)c1` [Compound 1549] ({CH2CO}-[4Pal][Phe(4-COOH)]D[Phe(3-Me)]V[Bip][Cit][Orn][dL][Dab][Cha]VTC-NH2; thioether N-14), for which the IC50 under setting [1] turned out to be 0.0109 µM.

`CC(C)C[C@@H]1NC(=O)[C@H](CCN)NC(=O)[C@@H](CC(C)C)NC(=O)[C@H](CCN)NC(=O)[C@H](C(C)C)NC(=O)[C@H](Cc2ccc(-c3ccccc3)cc2)NC(=O)[C@H](C(C)C)NC(=O)[C@H](Cc2c[nH]c3ccccc23)NC(=O)[C@H](CC(N)=O)NC(=O)[C@H](Cc2ccc(O)cc2)NC(=O)[C@H](CC(N)=O)NC(=O)CSC[C@@H](C(=O)N[C@@H](C)C(N)=O)NC(=O)[C@H](CO)NC(=O)[C@H](C(C)C)NC1=O` [Compound 1080] ({CH2CO}-NYNWV[Bip]V[Dab][dL][Dab]LVSCA-NH2; thioether N-14): the IC50 under setting [1] was found to be 0.0471 µM.

Consider `Cc1cccc(C[C@@H]2NC(=O)[C@H](CC(=O)O)NC(=O)[C@H](Cc3ccc(C#N)cc3)NC(=O)[C@H](C(C)O)NC(=O)CSC[C@@H](C(=O)N[C@@H](CCN)C(N)=O)NC(=O)[C@H](Cc3c[nH]cn3)NC(=O)[C@H](C(C)(C)O)NC(=O)[C@H](CC3CCCCC3)NC(=O)[C@H](CCN)NC(=O)[C@@H](CC(C)C)NC(=O)[C@H](CCCN)NC(=O)[C@H](Cc3ccc(OCC(=O)O)cc3)NC(=O)[C@H](Cc3ccc(-c4ccccc4)cc3)NC(=O)[C@H](Cc3ccc(OCC(=O)O)cc3)NC2=O)c1` (stereo partly drawn) [Compound 2673] ({CH2CO}-[Thr(3ξ)][Phe(4-CN)]D[Phe(3-Me)]Y(Carboxymethyl)[Bip]Y(Carboxymethyl)[Orn][dL][Dab][Cha][Val(3-OH)]HC[Dab]-NH2; thioether N-14), for which, under setting [1], the IC50 is 0.0058 µM.
